From patent US9821000B2, “Compounds, compositions and corresponding uses for preventing and/or treating of dyslipidemia” (CENTRE NATIONAL DE LA RECHERCHE SCIENTIFIQUE (CNRS), priority 2013, dated 2017)
“Also recorded” adds a separate entry of the source.

Columns and labels:
[1] = test system: hem1Δ yeasts; experiment: Restoration of growth of lipo-intoxicated hem1Δ yeasts (drop test on agar); assay type: cell-based, Saccharomyces cerevisiae; settings: SFA accumulation conditions; 5 μl drops on agar; after three days
Protocol: FIG. 3B—The hem1Δ yeasts were cultivated in conditions of SFA accumulation as indicated. 5 μl drops of OAG, LPA and oleic acid in the concentrations indicated were then deposited on the surface of the agar medium. The restoration of growth of the hem1Δ yeasts is observed in the formation of colonies after three days.
The strain carrying the hem1Δ strain is cultivated, under aerobic conditions, under stirring and at 28° C., in a YPG^A liquid medium (YPG (yeast extract 1% (m/v), peptone 1% (m/v) and glucose 2% (m/v)) supplemented with δ-aminolevulinic acid (ALA) at 80 μg/mL). Lipotoxicity by saturated fatty acids (SFA) is prompted by depletion of unsaturated fatty acids (UFA)—the synthesis of which is dependent on the presence of haem (prosthetic grouping of the enzyme Ole1p especially)—by transfer into YPG^+ medium (YPG supplemented with ergosterol at 80 μg/mL to compensate for the depletion in sterol obtained under these conditions). The lipotoxicity can be induced in a solid medium YPG^++agar 2% (m/v) in transferring 3500 cells (hem1Δ coming from a pre-culture in YPG^A)/cm^2 or *alternatively in a liquid medium in inoculating 2·10^6 cells/mL of YPG^+. Classically, the effects of lipotoxicity on SFA are analyzed 7 h after the transfer into YPG^+ medium. The capacity of a compound to counter the deleterious effects of lipotoxicity with SFA is for its part evaluated successively with the addition of this compound on (or in) the YPG^+ transfer medium after seeding with cells.
1) Screening of compounds: Following the induction of lipotoxicity with SFA (for hem1Δ cultivated in a solid medium), 5 μL drops of solutions of different compounds at 10 mM in dimethylsulfoxide (DMSO) or in ethanol (EtOH) are deposited on the surface of agar. The capacity of a compound to counter the lipo-induced stoppage of cell growth is estimated by the appearance of a halo of hem1Δ colonies at the position of the deposit of said compound after three days of culture at 28° C. (cf. Deguil et al., 2011).

[2] = test system: UPR response; experiment: UPR triggering test (4xUPRE-LacZ reporter, β-galactosidase activity) in hem1Δ yeast; assay type: cell-based, Saccharomyces cerevisiae; settings: hem1Δ in liquid medium inducing SFA accumulation, 200 μM compound
Excerpt: A plasmidic construction carrying a fusion gene, corresponding to the encoding sequence of the gene LacZ placed under dependence of an artificial promoter containing four UPR elements (UPRE) was introduced into a hem1Δf yeast strain, as described in Pineau et al. (2009). During an induction of the UPR response, the Hac1p/XBP1p transcription is activated and gets fixed on the UPR elements of the fusion gene, leading to the transcription of the LacZ gene. With LacZ encoding β-galactosidase, the level of induction of UPR is measured to detect the corresponding enzyme activity. The hem1Δ yeast strain was cultivated in a liquid medium inducing the accumulation of SFA without other addition (Ø), or in the same medium supplemented with 200 μM of oleic acid, OAG or LPA as indicated. A.U.: arbitrary units.
The hem1Δ strain transformed by the plasmid pPW344 [2 μ URA34×UPRE-LacZ (Patil et al., 2004)] is cultivated in liquid medium YPG^A, YPG or YPG+200 μM of compound to be tested in aerobic conditions, under stirring and at 28° C. for 7 h, starting from an initial cell concentration of 2·10^6 cells/mL. At the end of the culture, 10^8 cells are collected in order to quantify the beta-galactosidase (β-gal) activity resulting from the expression of the LacZ trans gene (in the case of a triggering of UPR). […]

[3] = test system: eIF2α; experiment: Western blotting of eIF2α phosphorylation (UPR) in BRIN-BD11 cells; assay type: cell-based, rat; settings: BRIN-BD11, palmitic acid 200 μM
Protocol: The BRIN-BD11 pancreatic β-cells were cultivated in controlled conditions or in the presence of an exogenous source of saturated fatty acids (palmitic acid 200 μM), as described by Dhayal& Morgan (2011) in order to generate conditions of lipotoxicity with or without addition of OAG or LPA.
FIG. 7B—The rates of phosphorylation of eIF2α were also analyzed under different conditions by Western blotting method, in the absence (Ø) or in the presence of OAG or LPA and normalized with quantities of total eIF2α. […] A.U.: arbitrary units.
The cells BRIN-BD11 are seeded at a density of 0.5×10^5 cells/mL in T25 flasks for 24 h. As indicated here above, the complete medium is then replaced by an equivalent devoid of FCS but containing the lipid reagents of interest. […] In a second stage, the membranes are stripped with the buffer Re-Blot Plus-Strong (Millipore) and then probed a second time with total anti-eIF2α antibodies (CellSignalling (New EnglandBiolabs) diluted to 1/1000th. The analysis by densitometry of the relative abundance of the phosphorylated and non-phosphorylated forms of the protein eIF2α is done with the Fluor-S Multi-imager analysis system combined with the software program Quantify One (Biorad UK Ltd).

SMILES	restoration of growth of lipo-intoxicated hem1Δ yeasts (formation of colonies) [1]	UPR response in lipo-intoxicated yeasts (β-galactosidase activity) [2]	UPR induction (rate of phosphorylation of eIF2α normalized to total eIF2α) [3]
CCCCCCCC/C=C\CCCCCCCC(=O)OC[C@@H](O)COP(=O)(O)O [LPA, 1-oleoyl-sn-glycerol-3-phosphate]	restore the growth	reduce the UPR response	reducing the induction rate of UPR
CCCCCCCC/C=C\CCCCCCCC(=O)OC[C@H](CO)OC(C)=O [OAG, 1-oleoyl-2-acetyl-sn-glycerol]	restore the growth	reduce the UPR response	reducing the induction rate of UPR; also recorded: reduces the UPR
